These results are taken from PMC11334910, “Activity-Based Protein Profiling of RHBDL4 Reveals Proteolysis of the Enzyme and a Distinct Inhibitor Profile” (ACS Chemical Biology, 2024).

The structures appear in SMILES notation. Where two headings read alike, the source gives them in different places.

In general, IC50 refers to the point on the concentration scale where inhibition reaches its midpoint. Low readings indicate greater potency in that assay, high ones weaker potency in that assay.

In assay [1] the target is T1, human RHBDL4 (hRHBDL4) (Homo sapiens, UniProt Q8TEB9).
T1 sequence (Q8TEB9 1-315): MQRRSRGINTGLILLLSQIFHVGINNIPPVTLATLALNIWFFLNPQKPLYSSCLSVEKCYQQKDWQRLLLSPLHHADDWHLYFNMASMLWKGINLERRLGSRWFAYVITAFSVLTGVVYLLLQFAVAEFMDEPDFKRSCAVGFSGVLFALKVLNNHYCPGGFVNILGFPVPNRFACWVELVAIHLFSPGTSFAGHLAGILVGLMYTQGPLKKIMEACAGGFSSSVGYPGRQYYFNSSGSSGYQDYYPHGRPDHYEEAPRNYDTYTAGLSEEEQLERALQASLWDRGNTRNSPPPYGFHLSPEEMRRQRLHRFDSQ
As to the kind of experiment: competitive ABPP with FP-Rh, dose-response. In kind it is biochemical. Also noted: gene RHBDD1.

Assay [2] deals with T2, hPARL (presenilin-associated rhomboid-like protein, mitochondrial) (Homo sapiens, UniProt Q9H300).
T2 construct: gene PARL; hPARL in HEK293T membrane proteome
T2 sequence (Q9H300 53-379): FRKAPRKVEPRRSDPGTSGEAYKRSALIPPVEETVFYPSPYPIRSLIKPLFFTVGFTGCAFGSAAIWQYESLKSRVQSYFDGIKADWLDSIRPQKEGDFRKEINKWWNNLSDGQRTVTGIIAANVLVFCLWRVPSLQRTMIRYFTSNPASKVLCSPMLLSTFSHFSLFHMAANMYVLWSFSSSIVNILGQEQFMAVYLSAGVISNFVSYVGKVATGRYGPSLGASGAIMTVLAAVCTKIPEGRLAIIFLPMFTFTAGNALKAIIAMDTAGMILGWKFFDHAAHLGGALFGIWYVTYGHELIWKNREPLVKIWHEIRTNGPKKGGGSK
As to the kind of experiment: competitive ABPP, dose-response. In kind it is biochemical.

In assay [3] the target is T1, human RHBDL4 (hRHBDL4). As to the kind of experiment: competitive ABPP with FP-Rh at […]. Type of assay: biochemical. The arrangement: gene RHBDD1; hRHBDL4 in HEK293T membrane proteome.
In assay [4] the target is T2, hPARL (presenilin-associated rhomboid-like protein, mitochondrial). Nature of the assay: competitive ABPP, dose-response. Type of assay: cell-based.

Consider `O=c1oc(Cl)c(Cl)c2ccccc12` [3,4-DCI], for which the half-maximal inhibitory concentration (IC50) was 1.1 µM in assay [1] and 25 µM in assay [2].
Regarding `O=C(OCN1C(=O)c2ccccc2S1(=O)=O)c1ccccc1Cl` [BSc5195], in assay [3], the “competitive ABPP with FP-Rh at 100 μM” value was “nearly complete competition at 100”.
For `O=C1CCC(=O)N1S(=O)(=O)c1ccccc1` [WHP3A], the half-maximal inhibitory concentration (IC50) result in assay [4] is given as “low micromolar”.
